Results as given in the NIST ThermoML archive (doi:10.1007/s10765-009-0579-1).

Assay: xn = mol fraction of the nth substance listed
Conditions: 423.15 K, Gas; for viscosity: Oscillating disk viscometry; for mass density: Pycnometric method

CC(F)(F)Cl [1-chloro-1,1-difluoroethane] + FC(F)Cl
Conditions | mass density [kg/m3] | viscosity [mPa·s]
102.1 kPa, x2 = 0.2615 | 2.829 | 0.01579
102.2 kPa, x2 = 0.5169 | 2.723 | 0.01631
346.2 kPa, x2 = 0.5169 | 9.354 | 0.01634
390.7 kPa, x2 = 0.7502 | 10.18 | 0.01687
394 kPa, x2 = 0.2615 | 11.13 | 0.01581
642 kPa, x2 = 0.5169 | 17.67 | 0.01639
685.5 kPa, x2 = 0.7502 | 18.14 | 0.01697
686.5 kPa, x2 = 0.2615 | 19.8 | 0.01588
935.8 kPa, x2 = 0.5169 | 26.24 | 0.01646
978.6 kPa, x2 = 0.2615 | 28.81 | 0.01594
1026 kPa, x2 = 0.7502 | 27.65 | 0.01702
1230 kPa, x2 = 0.5169 | 35.16 | 0.01657
1273 kPa, x2 = 0.2615 | 38.54 | 0.01604
1368 kPa, x2 = 0.7502 | 37.56 | 0.01711
1537 kPa, x2 = 0.5169 | 44.54 | 0.01663
1569 kPa, x2 = 0.2615 | 48.6 | 0.01618
1706 kPa, x2 = 0.7502 | 47.76 | 0.01724
1832 kPa, x2 = 0.5169 | 54.69 | 0.01677
1878 kPa, x2 = 0.2615 | 59.81 | 0.01632
2055 kPa, x2 = 0.7502 | 58.73 | 0.01731
2158 kPa, x2 = 0.2615 | 70.63 | 0.0165
2158 kPa, x2 = 0.5169 | 65.98 | 0.01694
2415 kPa, x2 = 0.7502 | 70.79 | 0.0175
2436 kPa, x2 = 0.2615 | 81.74 | 0.01671
2444 kPa, x2 = 0.5169 | 76.64 | 0.01711
2719 kPa, x2 = 0.7502 | 81.34 | 0.01769
2740 kPa, x2 = 0.5169 | 88.1 | 0.01736
2797 kPa, x2 = 0.2615 | 98.1 | 0.01703
3055 kPa, x2 = 0.5169 | 101.2 | 0.01765
3152 kPa, x2 = 0.2615 | 115.5 | 0.01743
3159 kPa, x2 = 0.7502 | 97.7 | 0.01797
3389 kPa, x2 = 0.5169 | 116.1 | 0.01791
3440 kPa, x2 = 0.2615 | 131.6 | 0.01785
3481 kPa, x2 = 0.7502 | 110.3 | 0.01829
3680 kPa, x2 = 0.2615 | 145.8 | 0.01822
3703 kPa, x2 = 0.5169 | 131.2 | 0.0183
3855 kPa, x2 = 0.7502 | 126.4 | 0.01863
3921 kPa, x2 = 0.2615 | 160.9 | 0.01868
3992 kPa, x2 = 0.5169 | 146.2 | 0.01874
4203 kPa, x2 = 0.7502 | 142 | 0.01894
4227 kPa, x2 = 0.2615 | 184.1 | 0.01939
4325 kPa, x2 = 0.5169 | 165.2 | 0.01926
4504 kPa, x2 = 0.2615 | 207.1 | 0.02023
4560 kPa, x2 = 0.7502 | 159.4 | 0.01947
4634 kPa, x2 = 0.5169 | 184.7 | 0.01988
4740 kPa, x2 = 0.2615 | 230.5 | 0.0212
4895 kPa, x2 = 0.5169 | 203.4 | 0.02048
4897 kPa, x2 = 0.7502 | 176.4 | 0.01997
4956 kPa, x2 = 0.2615 | 254.1 | 0.0222
5173 kPa, x2 = 0.5169 | 223.6 | 0.02124
5183 kPa, x2 = 0.2615 | 285.1 | 0.02361
5286 kPa, x2 = 0.2615 | 294.5 | 0.02439
5301 kPa, x2 = 0.7502 | 200.1 | 0.02057
5380 kPa, x2 = 0.5169 | 240.7 | 0.02187
5605 kPa, x2 = 0.7502 | 219.3 | 0.02121
5612 kPa, x2 = 0.5169 | 261.9 | 0.02295
5795 kPa, x2 = 0.5169 | 280.3 | 0.02357
5936 kPa, x2 = 0.7502 | 242.2 | 0.02202
6270 kPa, x2 = 0.7502 | 267.2 | 0.02299
